{
  "source": "paper PMC9266460",
  "about": "“KSK-74: Dual Histamine H3 and Sigma-2 Receptor Ligand with Anti-Obesity Potential” (International Journal of Molecular Sciences, 2022)",
  "key": {"[1]": {"test": "Pharmacokinetic study, single i.p. dose, plasma LC-MS/MS", "format": "in vivo, rat", "details": "for Tmax / Cmax / CL/F / MRT / half-life / k el / Vd/F: ip; for Tmax / Cmax / CL/F / MRT / half-life / k el / Vz/F (volume of distribution) / Vd/F: rat plasma, single i.p. dose of 10 mg/kg; for Cmax: n = 3, non-compartmental; for CL/F: read-out: CLS/F (clearance) (converted); for MRT: read-out: MRT (mean residence time); for half-life: read-out: t0.5λz (half-life) (converted); for k el: read-out: λz (terminal elimination rate constant) (converted); for Vz/F (volume of distribution) / Vd/F: 10 mg/kg; for Vd/F: rat, plasma, read-out: Vz/F (volume of distribution); for time at which maximal plasma concentration was attained (first sampling point): single i.p. dose of 10 mg/kg b.w.", "experimental": "Six rats divided into two experimental groups were used in pharmacokinetic experiments. Three days before the experiment, the rats’ jugular vein was cannulated allowing for multiple blood sampling from a single animal. The investigated compounds were administered i.p. at a single dose of 10 mg/kg. Blood samples (approximately 300 µL) were collected in Eppendorf tubes containing heparin at 5, 15, 30, 60, 120, 240, and 360 min after dosing. Plasma was harvested by centrifuging at 5000× g for 10 min and stored at −30 °C until bioanalysis.\nPlasma concentrations of KSK-60 or KSK-74 were measured using the liquid chromatography tandem mass spectrometry (LC-MS/MS) method. The samples (50 μL) were deproteinized in a 1:3 (v/v) ratio with acetonitrile containing an internal standard (IS—pentoxifylline), briefly vortexed, and then centrifuged for 10 min at a speed of 8000× g (Eppendorf miniSpin centrifuge). The supernatant was transferred to autosampler vials and a sample volume of 10 μL was injected into the LC-MS/MS system.\nChromatographic separation was performed on the analytical column XBridge™ C18 (3 × 50 mm, 5 µm, Waters, Dublin, Ireland) using the Agilent 1100 HPLC system (Agilent Technologies, Waldbronn, Germany). The mobile phase containing 0.1% formic acid in acetonitrile and 0.1% formic acid in water was run at 0.3 mL/min in gradient mode. Mass spectrometric detection was performed on an Applied Biosystems MDS Sciex (Concord, ON, Canada) API 2000 triple quadrupole mass spectrometer. Electrospray ionization (ESI) in the positive ion mode was used for ion production. The tandem mass spectrometer was operated at unit resolution in the selected reaction monitoring mode (SRM), monitoring the transitions of the protonated molecular ions m/z 396 to 107 (CE 80 V) for KSK-60, m/z 424 to 107 (CE 80 V) for KSK-74, and m/z 279 to 181 (CE 55 V) for IS. Data acquisition and processing were performed using the Applied Biosystems Analyst version 1.6 software. The calibration curves were constructed by plotting the ratio of the peak area of the studied compound to IS versus drug concentration, and generated by weighted (1/x · x) linear regression analysis. The validated quantitation ranges were from 1 to 2000 ng/mL. The calculated accuracy and precision were within the ranges proposed by the guidelines for the validation of bioanalytical methods (FDA, EMA). No significant matrix effect was observed and there were no stability-related problems during the routine analysis of the samples.\nPharmacokinetic parameters were calculated by employing a non-compartmental approach using Monolix version 2019R1 (Antony, France: Lixoft SAS, 2019) software. The area under the mean plasma concentration versus time curve extrapolated to infinity (AUC0-inf) was estimated using the log/linear trapezoidal rule. AUMC0-inf was estimated by calculating the total area under the first-moment curve by combining the trapezoid calculation of AUMC0-t and the extrapolated area. The mean residence time (MRT) was calculated from AUMC0-inf/AUC0-inf. The terminal rate constant (λz) was calculated by log-linear regression of the drug concentration data in the terminal phase, and the terminal half-life (t1/2) was calculated as 0.693/λz. Clearance (CL/F) was estimated from the administered dose divided by AUC0-inf. The apparent volume of distribution during the terminal phase (Vz/F) was calculated from (CL/F)/λz."}, "[2]": {"target": "sigma-1 receptor", "parameters": "method as in PMID 34908391", "details": "Figure 1; read-out: σ1R Ki; cited from earlier work"}, "[3]": {"tested_on": "rats fed a palatable diet", "test": "Model of excessive eating: body weight, calorie intake, fat pads", "format": "in vivo, female Wistar rats", "details": "for body weight during administration (time course): 10 mg/kg i.p. daily, persisted until the 28th day; for amount of peritoneal fat pads vs palatable diet + vehicle: KSK 10 mg/kg, end of experiment; for amount of peritoneal fat pads vs palatable diet + vehicle / body weight gain vs palatable diet + vehicle: phentermine 7 mg/kg; for calorie intake vs control group fed palatable feed: i.p. 28 days, KSK 10 mg/kg b.w., phentermine 7 mg/kg b.w.; for body weight vs palatable diet + vehicle / body weight gain vs palatable diet + vehicle: i.p. daily 4 weeks; for body weight vs palatable diet + vehicle: 1 mg/kg; for body weight gain vs palatable diet + vehicle: KSK-60/KSK-74 10 mg/kg b.w.", "experimental": "Experiments were performed on female Wistar rats with an initial body weight of 140–160 g. The animals were housed in plastic cages (2 rats per cage) at a constant room temperature of 22 ± 2 °C, with a 12:12 h light/dark cycle. Water and food were available ad libitum. The randomly established experimental groups consisted of 6 rats for pharmacological studies and 3 rats for pharmacokinetic studies. All experiments were conducted in accordance with the Guide to the Care and Use of Experimental Animals, and were approved by the Jagiellonian University in Krakow Local Ethics Committee for Experiments on Animals (Permission No: 185/2017, 220/2019 and 223A/2019).\nFemale rats were randomly divided into several groups (n = 6) and studied for 4 weeks. The groups were as follows: standard diet + vehicle, palatable diet + vehicle, palatable diet + KSK-60 (1 mg/kg), palatable diet + KSK-60 (10 mg/kg), palatable diet + KSK-74 (1 mg/kg), palatable diet + KSK-74 (10 mg/kg), palatable diet + phentermine (7 mg/kg).\nThe studies for the 1 mg/kg b.w. and 10 mg/kg b.w. doses were performed at different times, so the parameters studied were compared to the respective control groups.\nRats fed a palatable diet had access to a diet consisting of milk chocolate with nuts, cheese, salted peanuts, and 7% condensed milk, and simultaneously to a standard feed (Labofeed B, Morawski Manufacturer Feed, Poland) for 4 weeks. The water was available ad libitum. Animals had access to palatable products, but also to the standard feed. Most importantly, feeding was not in any way forced, as in other models where animals were fed only a high-fat diet, or temporarily deprived of food (binge eating models). In the case of our model, rats decided themselves when, what, and how much to eat. The weight was evaluated daily. Calorie intake was evaluated three times a week. A palatable diet contained 100 g of peanuts—612 kcal; 100 mL of condensed milk—131 kcal; 100 g of milk chocolate—529 kcal; and 100 g of cheese—325 kcal. The standard diet contained 100 g of feed—280 kcal. Standard diet (fats 8%, carbohydrates 67%, proteins 25%) contained 100 g feed—280 kcal.\nThe palatable control group (palatable diet + vehicle) received vehicle (1% Tween 80 i.p., daily, for 4 weeks), while palatable test groups were injected i.p. with KSK-60 (1 mg or 10 mg/kg i.p, daily, for 4 weeks), KSK-74 (1 mg/kg or 10 mg/kg i.p, daily, for 4 weeks), or phentermine (7 mg/kg i.p., daily, for 4 weeks), respectively.\nOn the 31st day, 20 min after i.p. administration of heparin (5000 units/rat) and thiopental (70 mg/kg b.w.), animals were sacrificed, and plasma as well as peritoneal fat pads were collected (food was stopped for 6 h prior to organ, tissue, and plasma collection) for further study."}},
  "data": [
    {"smiles": "CCC(=O)c1ccc(OCCCCCCN2CCN(c3ccncc3)CC2)cc1", "note": "[KSK-60]", "values": [
      {"measurement": "Tmax", "setting": "[1]", "result": 4.98, "unit": "min"},
      {"measurement": "Cmax", "setting": "[1]", "result": 109, "unit": "ng/mL"},
      {"measurement": "CL/F", "setting": "[1]", "result": 1170, "unit": "mL/min/kg"},
      {"measurement": "MRT", "setting": "[1]", "result": 3.28, "unit": "h"},
      {"measurement": "half-life", "setting": "[1]", "result": 2.7, "unit": "h"},
      {"measurement": "k el", "setting": "[1]", "result": "7.22e-05", "unit": "s⁻¹"},
      {"measurement": "Vz/F (volume of distribution)", "setting": "[1]", "result": 272.63, "unit": "L/kg"},
      {"measurement": "Vd/F", "setting": "[1]", "result": 272, "unit": "L/kg"},
      {"measurement": "time at which maximal plasma concentration was attained (first sampling point)", "setting": "[1]", "result": 5, "unit": "min"},
      {"measurement": "Ki", "setting": "[2]", "result": 248, "unit": "nM"},
      {"measurement": "body weight during administration (time course)", "setting": "[3]", "result": "significant inhibition of body weight gain around the 10th day"},
      {"measurement": "amount of peritoneal fat pads vs palatable diet + vehicle", "setting": "[3]", "result": "fewer peritoneal fat pads"},
      {"measurement": "calorie intake vs control group fed palatable feed", "setting": "[3]", "result": "did not significantly influence the amount of calories consumed"},
      {"measurement": "body weight vs palatable diet + vehicle", "setting": "[3]", "result": "No differences in body weight"},
      {"measurement": "body weight gain vs palatable diet + vehicle", "setting": "[3]", "result": "gained significantly less weight"}
    ]},
    {"smiles": "CCC(=O)c1ccc(OCCCCCCCCN2CCN(c3ccncc3)CC2)cc1", "note": "[KSK-74]", "values": [
      {"measurement": "Tmax", "setting": "[1]", "result": 4.98, "unit": "min"},
      {"measurement": "Cmax", "setting": "[1]", "result": 105, "unit": "ng/mL"},
      {"measurement": "CL/F", "setting": "[1]", "result": 2180, "unit": "mL/min/kg"},
      {"measurement": "MRT", "setting": "[1]", "result": 2.45, "unit": "h"},
      {"measurement": "half-life", "setting": "[1]", "result": 2.71, "unit": "h"},
      {"measurement": "k el", "setting": "[1]", "result": "6.94e-05", "unit": "s⁻¹"},
      {"measurement": "Vz/F (volume of distribution)", "setting": "[1]", "result": 513.14, "unit": "L/kg"},
      {"measurement": "Vd/F", "setting": "[1]", "result": 513, "unit": "L/kg"},
      {"measurement": "time at which maximal plasma concentration was attained (first sampling point)", "setting": "[1]", "result": 5, "unit": "min"},
      {"measurement": "Ki", "setting": "[2]", "result": 274, "unit": "nM"},
      {"measurement": "milk intake vs control group fed palatable feed", "setting": "[3]; 10 mg/kg b.w.", "result": "consumed significantly less milk in the first and second weeks"},
      {"measurement": "peanuts intake vs control group fed palatable feed", "setting": "[3]; 10 mg/kg b.w.", "result": "significantly less peanuts in the fourth week"},
      {"measurement": "body weight during administration (time course)", "setting": "[3]", "result": "significant inhibition of body weight gain around the 10th day"},
      {"measurement": "amount of peritoneal fat pads vs palatable diet + vehicle", "setting": "[3]", "result": "fewer fat pads"},
      {"measurement": "calorie intake vs control group fed palatable feed", "setting": "[3]", "result": "did not significantly influence the amount of calories consumed"},
      {"measurement": "body weight vs palatable diet + vehicle", "setting": "[3]", "result": "No differences in body weight"},
      {"measurement": "body weight gain vs palatable diet + vehicle", "setting": "[3]", "result": "gained significantly less weight"}
    ]}
  ]
}
